Test results as given in ChEMBL document CHEMBL1145283, “3-hydroxymethyl-7-(N-substituted aminosulfonyl)-1,2,3,4-tetrahydroisoquinoline inhibitors of phenylethanolamine N-methyltransferase that display remarkable potency and selectivity” (J Med Chem, 2005).

Biological target: T1, Adrenergic receptor alpha-2 (Rattus norvegicus, UniProt P22086+P19328+P22909)
T1 sequence (P22086 whole entry): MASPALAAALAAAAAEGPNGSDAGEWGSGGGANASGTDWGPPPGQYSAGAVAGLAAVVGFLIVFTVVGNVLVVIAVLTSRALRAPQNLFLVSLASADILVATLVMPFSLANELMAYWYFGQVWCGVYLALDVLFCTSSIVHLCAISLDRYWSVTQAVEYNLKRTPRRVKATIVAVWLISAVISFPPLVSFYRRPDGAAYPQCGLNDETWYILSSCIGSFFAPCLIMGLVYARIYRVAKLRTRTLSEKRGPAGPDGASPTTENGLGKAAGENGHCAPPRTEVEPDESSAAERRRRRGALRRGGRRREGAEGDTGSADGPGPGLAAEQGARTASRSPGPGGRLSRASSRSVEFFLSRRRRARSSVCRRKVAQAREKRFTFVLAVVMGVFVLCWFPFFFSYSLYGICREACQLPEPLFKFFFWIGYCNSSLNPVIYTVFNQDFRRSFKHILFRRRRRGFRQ
T1 sequence (P19328 whole entry): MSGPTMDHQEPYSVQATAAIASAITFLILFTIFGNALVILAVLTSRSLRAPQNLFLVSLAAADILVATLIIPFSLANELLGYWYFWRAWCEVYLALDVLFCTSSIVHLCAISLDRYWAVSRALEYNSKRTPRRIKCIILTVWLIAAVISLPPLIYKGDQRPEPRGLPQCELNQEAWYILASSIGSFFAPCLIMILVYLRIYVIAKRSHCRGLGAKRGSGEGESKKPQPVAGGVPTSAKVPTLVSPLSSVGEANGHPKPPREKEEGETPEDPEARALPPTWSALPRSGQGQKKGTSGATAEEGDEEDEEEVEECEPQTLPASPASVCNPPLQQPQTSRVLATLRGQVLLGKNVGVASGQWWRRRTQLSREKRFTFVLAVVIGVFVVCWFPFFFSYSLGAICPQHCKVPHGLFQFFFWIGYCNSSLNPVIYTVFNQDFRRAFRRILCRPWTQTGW
T1 sequence (P22909 whole entry): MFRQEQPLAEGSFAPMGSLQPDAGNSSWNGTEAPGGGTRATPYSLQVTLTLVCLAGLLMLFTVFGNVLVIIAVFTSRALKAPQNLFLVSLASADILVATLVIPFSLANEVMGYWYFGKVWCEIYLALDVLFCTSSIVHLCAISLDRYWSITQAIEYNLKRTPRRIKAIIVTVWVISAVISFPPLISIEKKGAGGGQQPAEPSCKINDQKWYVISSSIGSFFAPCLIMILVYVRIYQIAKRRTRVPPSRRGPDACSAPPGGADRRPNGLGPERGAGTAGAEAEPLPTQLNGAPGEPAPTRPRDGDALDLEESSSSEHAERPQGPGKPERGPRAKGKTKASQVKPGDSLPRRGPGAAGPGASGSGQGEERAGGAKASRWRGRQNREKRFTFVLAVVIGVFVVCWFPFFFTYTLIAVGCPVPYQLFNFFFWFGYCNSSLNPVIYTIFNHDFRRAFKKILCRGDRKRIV
Test: In vitro inhibition of [3H]clonidine from alpha-2 adrenergic receptor of rat cortex

SMILES	Ki [µM]
CCCNS(=O)(=O)c1ccc2c(c1)CNC(CO)C2 (stereo not given)	230
O=S(=O)(Nc1ccc(Cl)cc1)c1ccc2c(c1)CNC(CO)C2 (stereo not given)	53
O=S(=O)(NCC(F)(F)F)c1ccc2c(c1)CNC(CO)C2 (stereo not given)	340

Now from value to compound:

Ki [µM]	SMILES
320	O=S(=O)(c1ccc2c(c1)CNC(CO)C2)N1CCSCC1 (stereo not given)
210	CCNS(=O)(=O)c1ccc2c(c1)CNC(CO)C2 (stereo not given)
